Like-named read-outs stand apart in the source and are kept apart here.
Tests used:
[1] = system: THP-1; assay: Resazurin reduction cell viability assay; assay type: cell-based, human; conditions: Homo sapiens, THP-1, 72 h, THP-1; value the 7 x 7 combination matrix spans; 72 h; read-out: IC50 value of each compound (single agent)
Procedure: (§1) Solid tumor cell lines were seeded in 100 μl medium into 96-well plates at an appropriate cell number determined by a cell dilution assay (Cal51–2000 cells/well; Colo205, MCF10A and 184A1–3000 cells/well and MDA-MB-468, HCC1954–4000 cells/well). AML suspension cells were seeded in 96-well plates at approximately 3000 cells per well. Cells were incubated overnight at 37°C, 5% CO2. The following day, 100 μl fresh medium containing increasing concentrations of appropriate compound was added and the cells were incubated for up to 72 h at 37°C, 5% CO2. For pulse treatment of solid (adherent) tumor cell lines, medium was aspirated and replaced with fresh drug-free medium. For pulse treatment of suspension lines, plates were centrifuged at 478 xg for 5 min at the end of the incubation period with compound, medium containing compound was carefully aspirated and replaced with fresh compound-free medium. A total of 72 h after the start of treatment, 20 μl of a 10X stock of resazurin sodium salt (Sigma-Aldrich, Dorset, UK) prepared in medium was added to the cells and incubated for up to 3 h. […] was measured on the Wallac Victor plate reader (Cambridge, UK) at 544–595 nm. IC50/70/90 calculations were determined in XLFit.

[2] = system: Colo205; assay: Resazurin reduction cell viability assay; assay type: cell-based, human; conditions: 72 h continuous treatment, read-out: Colo205 IC50 ± SD
Procedure: as §1

[3] = system: subcutaneous EOL-1 tumors; assay: EOL-1 human eosinophilic leukemia xenograft model; assay type: in vivo, SCID mice
Procedure: Female athymic CB-17 SCID (Harlan Sprague-Dawley) mice between 6–7 weeks of age weighing approximately 22 grams were housed in a 12-h light-dark cycle at 70–74°F (21–23°C) and 40–60% humidity. Animals were fed water ad libitum (reverse osmosis, 2 ppm Cl2) and an irradiated standard rodent diet (Teklad 2919) consisting of 19% protein, 9% fat, and 4% fiber. Mice were injected subcutaneously into the right flank with 1x10^7 EOL-1 cells in 100 μl of a 1:1 HBSS:Matrigel solution. When tumors reached approximately 125–250 mm^3, animals were matched by tumor volume and then randomized into treatment and control groups before dosing was initiated. […] Cytarabine, also known as cytosine arabinoside (AraC), was administered by daily ip injection for 5 days only. Agent toxicity was assessed by effects on body weight and clinical signs. Animals were weighed twice weekly using a digital scale (Ohaus SP601). Beginning on Day 0, tumor dimensions were measured twice weekly by digital caliper (Fowler Ultra-Cal IV); tumor volume was calculated using the formula TV = width^2 x length x 0.52. […] Statistical differences in tumor volume were determined using a two-tailed One-Way Analysis of Variance (ANOVA) followed by the Dunnett’s multiple comparisons test comparing treated groups with control. For animal welfare the following methods were used: (a) methods of sacrifice: isoflurane anesthesia followed by cervical dislocation; (b) methods of anesthesia and/or analgesia: isoflurane anesthesia and (c) efforts to alleviate suffering: carprofen if animal veterinarian decides necessary or euthanasia.

| SMILES | IC50 [1] [nM] | IC50 ([2]; Homo sapiens, COLO 205, 72 h) [nM] | also measured |
| --- | --- | --- | --- |
| CC1(C)CCC(CN2CCN(c3ccc(C(=O)NS(=O)(=O)c4ccc(NCC5CCOCC5)c([N+](=O)[O-])c4)c(Oc4cnc5[nH]ccc5c4)c3)CC2)=C(c2ccc(Cl)cc2)C1 [ABT-199, reference compound] | 60 | – | – |
| CC1(C)CCC(c2ccc(Cl)cc2)=C(CN2CCN(c3ccc(C(=O)NS(=O)(=O)c4ccc(N[C@H](CCN5CCOCC5)CSc5ccccc5)c(S(=O)(=O)C(F)(F)F)c4)cc3)CC2)C1 [ABT-263, reference compound] | 270 | – | – |
| CN(C)CC[C@H](CSc1ccccc1)Nc1ccc(S(=O)(=O)NC(=O)c2ccc(N3CCN(Cc4ccccc4-c4ccc(Cl)cc4)CC3)cc2)cc1[N+](=O)[O-] [ABT-737, reference compound] | 430 | – | – |
| CN1CC[C@H](c2c(O)cc(O)c3c(=O)cc(-c4ccccc4Cl)oc23)[C@H](O)C1 [Alvocidib (flavopiridol), reference compound] | – | 129 | IC50 [2]: 130 ± 20 nM |
| CC[C@H](Nc1nc(NCc2cccnc2)c2ncn(C(C)C)c2n1)[C@@H](C)O [CCT068127] | – | 820 | – |
| Nc1ccn([C@@H]2O[C@H](CO)[C@@H](O)[C@@H]2O)c(=O)n1 [cytarabine, cytosine arabinoside, reference compound] | – | – | transient body weight loss ([3]; 100 mg/kg i.p.): 3%; tumor growth inhibition (TGI) ([3]; 100 mg/kg i.p. days 1-5, Day 19): 38%; median TGI ([3]; 100 mg/kg i.p. days 1-5, day 9): 41% |

Reference: article PMC7347136 (PLoS ONE, 2020)
